Values quoted from earlier work in patent publication US12371983B2, “Large-scale carbon-mineralization through oxalatization” (THE CURATORS OF THE UNIVERSITY OF MISSOURI, priority 2021, dated 2025).
Converted amounts (≈) assume the structure as drawn.

Settings: at 20° C. and one atmospheric pressure

solubility in water: ~1800 µg/mL (≈ 40.9 mM)
Structure (SMILES): O=C=O [CO2]
